Assay results from patent US20250205230A1 (priority 2022, published 2025).

Assays:
VSV-G glycoprotein = assay type: cell-based, vesicular stomatitis Indiana virus (VSV)
VSV-G = assay type: cell-based, vesicular stomatitis Indiana virus (VSV)

Compound: CN(N=Cc1ccc(O)c(O)c1)c1nc(-c2ccccc2)cc(-c2ccccc2)n1 [MK-28, 4-((2-(4,6-diphenylpyrimidin-2-yl)-2-methylhydrazineylidene)methyl) benzene-1,2-diol]
- Endo H-resistance of VSV-G relative to untreated control cells (VSV-G glycoprotein): about half the resistance of untreated control cells
- Endo H-resistance of VSV-G (VSV-G): decreased considerably
